Structures are written as SMILES. Marks after values point to notes of the source that are not given here.

The test system of data set [1] is caterpillars of the cotton bollworm (Heliothis armigera). Nature of the data set: Heliothis armigera Test. It is filed as in vivo. As to conditions: active compound concentration 0.00016%, after 6 days, dipped soy shoots. The protocol: (§1) Solvent: 7 parts by weight of dimethylformamide
(§2) Emulsifier: 1 part by weight of alkylaryl polyglycol ether
(§3) To produce a suitable preparation of active compound, 1 part by weight of active compound is mixed with the stated amount of solvent and the stated amount of emulsifier, and the concentrate is diluted with water to the desired concentration.
Soy shoots (Glycine max) are treated by being dipped into the active compound preparation of the desired concentration and are populated with caterpillars of the cotton bollworm (Heliothis armigera), while the leaves are still moist.
After the desired period of time, the activity in % is determined. 100% means that all the caterpillars have been killed; 0% means that none of the caterpillars have been killed.

Data set [2] concerns caterpillars of the diamond back moth (Plutella xylostella). Nature of the data set: Plutella Test. Format: in vivo. To be noted: active compound concentration 0.000032%, after 7 days, dipped cabbage leaves. On the procedure:
as §1, §2, §3
Cabbage leaves (Brassica oleracea) are treated by being dipped into the active compound preparation of the desired concentration and are infested with caterpillars of the diamond back moth (Plutella xylostella), while the leaves are still moist.
(§4) After the desired period of time, the activity in % is determined. 100% means that all caterpillars have been killed; 0% means that none of the caterpillars have been killed.

The test system of data set [3] is larvae of the mustard beetle (Phaedon cochleariae). Nature of the data set: Phaedon Larvae Test. Format: in vivo. To be noted: after 7 days, dipped cabbage leaves. The protocol: as §1, §2, §3
After the desired period of time, the kill in % is determined. 100% means that all the beetle larvae have been killed; 0% means that none of the beetle larvae have been killed.

The nature of data set [4]: logP, n-octanol/water partition coefficient by reversed phase HPLC. As to conditions: reversed phase HPLC using H2O/CH3CN; for logP (A isomer): A isomer (possible geometric isomer); for logP (B isomer): B isomer (possible geometric isomer). It is filed as physicochemical.
Data set [5] deals with caterpillars of the owlet moth (Spodoptera frugiperda). Nature of the data set: Spodoptera frugiperda Test. Format: in vivo. As to conditions: active compound concentration 0.0001%, after 7 days, dipped cabbage leaves. On the procedure:
Spodoptera frugiperda Test
as §1, §2, §3
Cabbage leaves (Brassica oleracea) are treated by being dipped into the active compound preparation of the desired concentration and populated with caterpillars of the owlet moth (Spodoptera frugiperda) while the leaves are still moist.
as §4

Another data set deals with Lucilia cuprina larvae. As to the kind of experiment: Blowfly Larvae Test/development-inhibitory Action. It is filed as in vivo. As to conditions: active compound concentration 100 ppm. On the procedure:
Blowfly Larvae Test/development-inhibitory Action
Test animals: Lucilia cuprina larvae
Solvent: Dimethyl sulphoxide
20 m of active compound are dissolved in 1 ml of dimethyl sulphoxide, and lower concentrations are prepared by dilution with distilled H2O .
About 20 Lucilia cuprina larvae are placed in a test tube containing about 1 cm^3 of horsemeat and 0.5 ml of the active compound preparation to be tested. The activity of the active compound preparation is determined after 24 hours and 48 hours. The test tubes are transferred into beakers whose bottom is covered with sand. After a further 2 days, the test tubes are removed and the pupae are counted.
The activity of the active compound preparation is judged by the number of flies which have hatched after 1.5 times the development period of an untreated control. 100% means that no flies have hatched; 0% means that all flies have hatched normally.

The test system of data set [6] is caterpillars of the owlet moth (Spodoptera exigua). As to the kind of experiment: Spodoptera exigua Test. Format: in vivo. To be noted: active compound concentration 0.000032%, after 6 days, dipped cabbage leaves. The protocol: as §1, §2, §3
Cabbage leaves (Brassica oleracea) are treated by being dipped into the active compound preparation of the desired concentration and populated with caterpillars of the owlet moth (Spodoptera exigua), while the leaves are still moist.
as §4

The test system of data set [7] is greenhouse red spider mite (Tetranychus urticae). Nature of the data set: Tetranychus Test (OP resistant/spray treatment). Format: in vivo. To be noted: active compound concentration 0.000032%, after 14 days, sprayed bean plants. On the procedure: Tetranychus Test (OP resistant/spray treatment)
Solvent: 3 parts by weight of dimethylformamide
as §2, §3
Bean plants (Phaseolus vulgaris) which are heavily infested by all stages of the greenhouse red spider mite (Tetranychus urticae) are sprayed with an active compound preparation of the desired concentration.
After the desired period of time, the activity in % is determined. 100% means that all the spider mites have been killed; 0% means that none of the spider mites have been killed.

Setting [8] is: active compound concentration 0.01%.

On to `CCC(C)ON=C(C)COc1ccc(-c2ccc(C3COC(c4c(F)cccc4Cl)=N3)cc2)cc1` (mixture of isomers) [Example 3], for which the kill in data set [1], in data set [2], in data set [3] (setting [8]) and in data set [5] was 100% throughout. Moreover, the “logP (A isomer)” value in data set [4] is 5.90 (A isomer)*. Moreover, in data set [4], the “logP (B isomer)” value is given as 5.81 (B isomer)*.
`CC(C)COc1ccc(-c2ccc(C3COC(c4ccccc4F)=N3)cc2)cc1` (centres unmarked) [Example 108] came in with a logP in data set [4] of 5.34.
`CC(C)Oc1ccc(-c2ccc(C3COC(c4ccccc4Br)=N3)cc2)cc1` (centres unmarked) [Example 5]: in the data set with Lucilia cuprina larvae, the “activity (development-inhibitory action, flies not hatched)” value is reported as 100%.
In turn, `CCON=CC(C)(C)Oc1ccc(-c2ccc(C3COC(c4c(F)cccc4F)=N3)cc2)cc1` (centres unmarked) [Example 53] displayed a logP in data set [4] of 5.00.
For the compound `CC(=NOCC(C)C)C(C)Oc1ccc(-c2ccc(C3COC(c4c(F)cccc4F)=N3)cc2)cc1` (mixture of isomers) [Example 51], in data set [4], the “logP (A isomer)” value is given as 5.93 and the “logP (B isomer)” value worked out at 5.79.
For the compound `CCON=CCOc1ccc(-c2ccc(C3COC(c4c(F)cccc4F)=N3)cc2)cc1` (mixture of isomers) [Example 16], in data set [4], the “logP (A isomer)” value was 4.35 (A isomer)* and the “logP (B isomer)” value was 4.53 (B isomer)*.
In the same order, the values of `CON=C(C)C(C)Oc1ccc(-c2ccc(C3COC(c4ccccc4Br)=N3)cc2)cc1` (mixture of isomers) [Example 92] are 5.08 and 5.18.
Compound `Cc1cc(-c2ccc(C3COC(c4c(F)cccc4OCC(F)(F)F)=N3)cc2)ccc1OCC(F)(F)F` (centres unmarked) [Example 120] came in with a logP in data set [4] of 4.91.
On the same count and under the same terms, then `CCON=CCOc1ccc(-c2ccc(C3COC(c4c(F)cccc4Cl)=N3)cc2)cc1` (centres unmarked) [Example 113], with 4.65; and `CON=CC(C)(C)Oc1ccc(-c2ccc(C3COC(c4c(F)cccc4F)=N3)cc2)cc1` (centres unmarked) [Example 57], with 4.62.
On the same count and under the same terms, the same measure for `C#CC(C)Oc1ccc(-c2ccc(C3COC(c4ccccc4Cl)=N3)cc2)cc1` (centres unmarked) [Example 37]: 4.49; for `C#CC(C)Oc1ccc(-c2ccc(C3COC(c4c(F)cccc4F)=N3)cc2)cc1` (centres unmarked) [Example 36]: 4.15.
Take `CCCCON=C(C)C(C)Oc1ccc(-c2ccc(C3COC(c4c(F)cccc4F)=N3)cc2)cc1Cl` (mixture of isomers) [Example 63]: in data set [4], the “logP (A isomer)” value turned out to be 6.37 and the “logP (B isomer)” value worked out at 6.22.
For the compound `CC(=O)C(C)Oc1ccc(-c2ccc(C3COC(c4ccccc4F)=N3)cc2)cc1` (centres unmarked) [Example 100], the logP in data set [4] was determined as 3.79.
On the same count and under the same terms, then `CC(C)(C=O)Oc1ccc(-c2ccc(C3COC(c4c(F)cccc4F)=N3)cc2)cc1` (centres unmarked) [Example 102], with 4.08.
Take `CCCCON=C(C)C(C)Oc1ccc(-c2ccc(C3COC(c4c(F)cccc4F)=N3)cc2)cc1` (mixture of isomers) [Example 52]: in data set [4], the “logP (A isomer)” value is 5.94 and the “logP (B isomer)” value was 5.80.
In the same order, the values of `CC(COc1ccc(-c2ccc(C3COC(c4c(F)cccc4Cl)=N3)cc2)cc1)=NOCC(C)C` (mixture of isomers) [Example 54] are 5.85 and 5.76.
Turning to `CCCCON=C(C)C(C)Oc1ccc(-c2ccc(C3COC(c4ccccc4Cl)=N3)cc2)cc1Cl` (mixture of isomers) [Example 61], in data set [4], the “logP (A isomer)” value came to 6.84 and the “logP (B isomer)” value is 6.67.
Turning to `ClC1(Cl)CC1COc1ccc(-c2ccc(C3COC(c4ccccc4I)=N3)cc2)cc1` (centres unmarked) [Example 22], in data set [4], the logP turned out to be 5.43.
Compound `CC(O)C(C)Oc1ccc(-c2ccc(C3COC(c4ccccc4Br)=N3)cc2)cc1` (centres unmarked) [Example 91] displayed a logP in data set [4] of 3.74.
Still for that read-out and setting: the same measure for `CC(C)Oc1ccc(-c2ccc(C3COC(c4ccccc4F)=N3)cc2)cc1` (centres unmarked) [Example 107]: 4.65.
As for `CCCCON=C(C)C(C)Oc1ccc(-c2ccc(C3COC(c4c(F)cccc4Cl)=N3)cc2)cc1` (mixture of isomers) [Example 49], in data set [4], the “logP (A isomer)” value is 6.23 and the “logP (B isomer)” value worked out at 6.09.
As for `CON=CCOc1ccc(-c2ccc(C3COC(c4c(F)cccc4F)=N3)cc2)cc1` (mixture of isomers) [Example 8], in data set [4], the “logP (A isomer)” value is given as 3.97 (A isomer)* and the “logP (B isomer)” value is recorded as 4.14 (B isomer)*.
Take `CC(=O)C(C)Oc1ccc(-c2ccc(C3COC(c4ccccc4Br)=N3)cc2)cc1` (centres unmarked) [Example 68]: the lipophilicity (logP) in data set [4] worked out at 4.13.
As to `CC(=NOC(C)C)C(C)(C)Oc1ccc(-c2ccc(C3COC(c4c(F)cccc4Cl)=N3)cc2)cc1` (centres unmarked) [Example 4], the kill in data set [3] (active compound concentration 0.00001%) and in data set [5] was 100% throughout. The log partition coefficient (logP) in data set [4] was determined as 6.30.
In the case of `Fc1cccc(F)c1C1=NC(c2ccc(-c3ccc(OCc4ccc(C(F)(F)F)cc4)cc3)cc2)CO1` (centres unmarked) [Example 1, 2-(2,6-difluorophenyl)-4-[4′-(4″-trifluoromethylbenzyl-oxy)-biphenyl-4-yl]-1,3-oxazoline], the kill in data set [6] came out at 80%; in data set [1] it was 100%; in data set [2] it was 85%; in data set [3] (setting [8]) it was 100%; in data set [5], 100%; in data set [7], 98%.
With `CCC(C)ON=C(C)COc1ccc(-c2ccc(C3COC(c4c(F)cccc4F)=N3)cc2)cc1` (mixture of isomers) [Example 56], in data set [4], the “logP (A isomer)” value came to 5.61 and the “logP (B isomer)” value worked out at 5.54.
In turn, `CCON=CCOc1ccc(-c2ccc(C3COC(c4ccccc4Cl)=N3)cc2)cc1Cl` (centres unmarked) [Example 117] yielded a logP in data set [4] of 5.08.
Still for that read-out and setting: the same measure for `CCON=CCOc1ccc(-c2ccc(C3COC(c4c(F)cccc4F)=N3)cc2)cc1Cl` (centres unmarked) [Example 115]: 4.71.
Same read-out and setting: then `CON=CCOc1ccc(-c2ccc(C3COC(c4c(F)cccc4Cl)=N3)cc2)cc1` (centres unmarked) [Example 112], with 4.27.
On to `CCON=C(COc1ccc(-c2ccc(C3COC(c4c(F)cccc4F)=N3)cc2)cc1)C(C)(C)C=C(Cl)Cl` (mixture of isomers) [Example 42], for which, in data set [4], the “logP (A isomer)” value is given as 6.48 and the “logP (B isomer)” value was 6.37.
The compound `CON=CCOc1ccc(-c2ccc(C3COC(c4c(F)cccc4F)=N3)cc2)cc1Cl` (centres unmarked) [Example 114] returned a logP in data set [4] of 4.33.
The same measure, in the same setting: the same measure for `CON=CCOc1ccc(-c2ccc(C3COC(c4ccccc4Cl)=N3)cc2)cc1Cl` (centres unmarked) [Example 116]: 4.72.
For the compound `CCCCON=C(C)COc1ccc(-c2ccc(C3COC(c4c(F)cccc4F)=N3)cc2)cc1` (mixture of isomers) [Example 55], in data set [4], the “logP (A isomer)” value stood at 5.58 and the “logP (B isomer)” value turned out to be 5.51.
The compound `Cc1cc(-c2ccc(C3COC(c4c(F)cccc4F)=N3)cc2)ccc1OCC(F)(F)F` (centres unmarked) [Example 119] gave a logP in data set [4] of 4.80.

Usually logP stands for a log measure of how a compound divides between an organic and an aqueous phase.
